pKd: −log10 of the molar value. Where a SMILES comes first, the peptide text is derived from it.
How the values were obtained:
spCC2-LZ (MOD of NEMO) = biological target: T1, spCC2-LZ (MOD of NEMO) (Mus musculus, UniProt O88522); experiment: Fluorescence anisotropy binding of labelled peptide to spCC2-LZ; settings: labelled peptide 10 μM, increasing spCC2-LZ; read-out: dissociation constant for spCC2-LZ
T1 construct: spCC2-LZ, synthetic polypeptide subdomain CC2-LZ; made in house; host or cells: chemical synthesis
T1 sequence (O88522 253-336): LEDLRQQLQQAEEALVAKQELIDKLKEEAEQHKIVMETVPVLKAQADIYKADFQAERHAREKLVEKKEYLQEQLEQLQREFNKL
Experimental: Anisotropy measurements were performed with a QuantaMaster® fluorometer (PTI), equipped with polarizing filters for excitation and emission, and using a photomultiplier tube in the L-configuration. All experiments were carried out in a microcuvette (60 μl) at 22° C., with excitation and emission wavelengths at 495 and 513 nm. The band pass of the excitation and emission wavelengths was 2 and 4 nm, respectively. Steady-state fluorescence anisotropy, expressed as millianisotropy units was measured as described Agou et al., 2004a. All measurements were carried out in a 20 mM isoionic buffer pH 8 (10 mM acetic acide, 10 mM MES, 20 mM Tris), containing 20 mM KCl. Each data point is the result of 20 recording taken over a 2-min period. To analyse whether DR NLM binds the MOD of NEMO, fluorescent labelled BA-DR NLM (10 μM) was incubated with an increasing concentrations of spCC2-LZ and the complex formation was monitored by fluorescence polarization (P) and results are expressed as anisotropy (A) according to the formula A=2P/(3-P). The concentration of spCC2-LZ was determining by amino acid analysis (Vinolo et al; 2006). Data points were fitted to the binding isotherm equation which gives a dissociation constant of 17 μM.

NF-AT pathway = experiment: NF-AT-luc reporter assay in Jurkat cells stimulated with PMA and ionomycin; type: cell-based, human; settings: 5 μM peptide, T-lymphocytes
Experimental: Jurkat T cells (clone 20) were transiently transfected by a DEAE-dextran method with a reporter plasmid containing the luciferase under the control of a promoter inducible by the ERK and p38 pathway (SRE-luc; Courtois et al., 1997, Mol. Cell. Biol, 17:1441-1449), the NF-AT pathway or the API pathway (respectively NF-AT-luc and AP1-luc; Northrop et al., 1993, J. Biol. […]., 268:2917-2923). Briefly, cells were washed and resuspended at 10^7 cells/ml in TBS containing 0.5 mg/ml of DEAE-dextran (Pharmacia). 1 μg per 2·10^6 cells of reporter plasmid was added. After 45 min at room temperature, the cells were diluted with 10 volumes of TBS, centrifuged, and resuspended at 10^6 cells/ml in 10% FCS-RPMI. After 24 h, cells were incubated with or without 5 μM NEMO-derived peptides (BA-NLM or BA-DR NLM) for 2 h. They were stimulated or mock-stimulated with 100 ng/ml PMA and 1 μg/ml ionomycin for 5 h, and finally lysed in luciferase buffer (25 mM Tris-phosphate pH 7.8 containing 8 mM MgCl2, 1 mM DTE, 1% Triton X100, 15% glycerol). Luciferase measurement was carried out in a Berthold Luminometer.

Flag-NEMO = biological target: T2, Flag-NEMO (Mus musculus, UniProt O88522, A144V/E216G/P360T/S248N); experiment: Pull-down of Flag-NEMO from JM4.5.2/Flag-NEMO cells treated with Bodipy-conjugated peptides, bead fluorescence; type: cell-based, murine; settings: 20 μM peptide, 4 h
T2 construct: expressed in transfected cells
T2 sequence (O88522 with tags, fused parts or gaps A144V/E216G/S248N/P360T): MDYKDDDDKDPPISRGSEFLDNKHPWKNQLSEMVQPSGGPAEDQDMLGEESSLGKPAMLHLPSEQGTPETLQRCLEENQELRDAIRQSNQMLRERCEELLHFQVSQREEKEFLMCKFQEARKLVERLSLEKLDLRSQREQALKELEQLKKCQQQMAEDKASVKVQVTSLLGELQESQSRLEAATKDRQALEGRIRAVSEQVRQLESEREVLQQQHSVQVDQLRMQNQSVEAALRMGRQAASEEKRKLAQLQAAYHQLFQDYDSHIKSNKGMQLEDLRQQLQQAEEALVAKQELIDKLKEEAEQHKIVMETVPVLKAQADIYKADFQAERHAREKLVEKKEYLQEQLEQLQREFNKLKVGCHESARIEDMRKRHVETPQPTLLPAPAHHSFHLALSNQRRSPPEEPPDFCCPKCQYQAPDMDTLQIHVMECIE
Experimental: 5·10^6 JM4.5.2/Flag-NEMO cells were seeded in 6-well plates (3 ml/well) and incubated with 20 μM of Bodipy-conjugated peptides (BA-NLM or BA-DR NLM) for 4 h at 37° C. Cells were centrifuged at 400×g for 5 min, resuspended in 200 μl of an hypotonic buffer (10 mM TrisHCl pH 7.9, 1.5 mM MgCl2, 10 mM KCl), left on ice for 20 min and lysed by several passage through a 26 G needle. Lysates were clarified at 15 000×g for 20 min and 80 μg of total proteins were incubated with 40 μl of agarose anti-Flag M2 beads for 1 h at 4° C. The Flag-NEMO protein were pulled down with the agarose anti-Flag M2 beads by centrifugation for 1 min. Beads were resuspended in 100 μl of hypotonic buffer and the fluorescence of NEMO linked peptide was read on microplate reader from SAFAS. NEMO coated beads were analyzed by Western blotting using anti-Flag M2 monoclonal antibodies to normalize the sample using the UN-SCAN-IT software. […]

## CC[C@H](C)[C@H](NC(=O)[C@H](CC(=O)O)NC(=O)[C@H](C)NC(=O)[C@H](CCC(N)=O)NC(=O)[C@H](C)NC(=O)[C@H](CCCCN)NC(=O)[C@H](CC(C)C)NC(C)=O)C(=O)N[C@@H](Cc1ccc(O)cc1)C(=O)N[C@@H](CCCCN)C(=O)N[C@@H](C)C(=O)N[C@@H](CCCNC(=N)N)C(=O)N[C@@H](Cc1ccccc1)C(=O)N[C@@H](CCC(N)=O)C(=O)N[C@@H](C)C(=O)N[C@@H](CCC(=O)O)C(=O)N[C@@H](CCCNC(=N)N)C(=O)N[C@@H](Cc1c[nH]cn1)C(=O)N[C@@H](C)C(=O)N[C@@H](CCCNC(=N)N)C(=O)N[C@@H](CCC(=O)O)C(=O)N[C@@H](CCCCN)C(N)=O [DR NLM] (Ac-LKAQADIYKARFQAERHAREK-NH2; N-terminus and C-terminus assumed)
spCC2-LZ (MOD of NEMO)
  pKd: 4.77
NF-AT pathway
  effect on NF-AT pathway: does not abrogate
Flag-NEMO
  peptide bound to NEMO in cells (bead fluorescence): binds specifically to NEMO

Reference: patent US20100240040A1, “METHOD FOR SCREENING FOR SELECTIVE MODULATOR OF THE NF-KB PATHWAY ACTIVATION” (INSTITUT PASTEUR, priority 2007, published 2010)
